Consider one compound from paper PMC3251615, “Effects of NK-4 in a Transgenic Mouse Model of Alzheimer's Disease” (PLoS ONE, 2012).

What is called IC50 is the point on the concentration scale where inhibition reaches its midpoint. A low value points to greater potency in that assay.

The test deals with T1, Beta-amyloid (Aβ) peptide Aβ1–40 (Homo sapiens, UniProt P05067).
T1 construct: gene APP; Aβ1–40 (Aβ1–42 and Aβ25–35 also measured)
Briefly: Thioflavin T fibril formation assay on the isolated peptide, […] hr at […] °C; electron microscopy (Aβ[…] and Aβ[…]). It is filed as biochemical.

T1 sequence (P05067 672-711 limits assumed): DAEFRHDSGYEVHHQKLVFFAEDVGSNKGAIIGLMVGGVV

With `CCN1C=CC(=CC=C(C=Cc2cc[n+](CC)c3ccccc23)c2cc[n+](CC)c3ccccc23)c2ccccc21` [NK-4, 4,4′-[3-{2-(1-ethyl-4(1H)-quinolylidene)ethylidene}propenylene] bis(1-ethylquinolinium iodide)], the IC50 is ~10 µM.
